Test [1] concerns BTSC#83. Nature of the test: Light microscopy of morphology / differentiation, BTSC#83. In kind it is cell-based. Particulars: 100 µM and 200 µM, 6 days.
The subject of test [2] is anaplastic thyroid carcinoma cell line 8505c. Put plainly: Chromatin immunoprecipitation (ChIP) of HMGA2 on ID2 promoter regions A and B. The class given is cell-based, human. The settings on record: 6 days. The text has this: The role of HMGA1 and HMGA2 in regulating ID2 transcription was confirmed by analyzing its expression in mouse embryonic fibroblasts (MEFs) knock-out for HMGA1, HMGA2, and the A1/A2 double mutant, respectively. […] We identified two AT-rich regions, hereafter indicated as “region A” and “region B”, in the human ID2 promoter, containing the HMGA2 consensus sequence[26] (Table S2) for our ChIP experiments. Due to availability, the high proliferation rate, and the expression of HMGA proteins, the anaplastic thyroid carcinoma cell line 8505c was used.
Chromatin immunoprecipitation was performed as described. Briefly, for each sample, 5 × 10^6 cells were collected by trypsinization and cross-linked with 1% formaldehyde; after sonication, the samples were immunoprecipitated with 10 µL anti-HMGA2 antibody (Genetex) or with control normal rabbit IgG and the chromatin was extracted. qPCR amplification was performed on 6 µL of immunoprecipitated DNA, using primers amplifying regions A and B of the ID2 promoter (Table S2). Ct values of samples precipitated with anti-HMGA2 and IgG antibodies were normalized with Ct values of input DNA. Fold change enrichment was calculated in comparison to normalized IgG, using the 2^−ΔΔCt formula. P values were calculated by using one-way ANOVA followed by Sidak’s multiple comparison test.

For test [3], the system named is BTSC#83. Put plainly: Growth curves (CellTiter), BTSC#83. Particulars: up to 200 μM. The class given is cell-based. How it is done:
BTSC#83 and BTSC#30p and their culture conditions have been described. For growth curves, suspension cultures were mechanically disaggregated and filtered through 37 µm filters (StemCell Technologies, Vancouver, Canada) in order to obtain bona fide single-cell suspension. […] Cell growth was assayed at the indicated time using the CellTiter Assay System (Promega). The growth conditions of 8505c anaplastic thyroid carcinoma cells and mouse Embryonic Fibroblasts (MEFs) knock-out for HMGA1, HMGA2, and HMGA1/A2 double mutant have been described previously[42],[64]. P values were calculated by using two-way ANOVA followed by Sidak’s multiple comparison test.

The target of test [4] is T1, bromodomain-containing protein 4 (BRD4) (Homo sapiens, UniProt O60885).
T1 construct: His-tagged BRD4-BD1 was purchased from BPS Bioscience (#31042); purchased BPS Bioscience 31042
Nature of the test: BRD4 AlphaScreen counterscreen assay (H4 peptide binding to BRD4). The settings on record: counter screen, Fig. 3c. The protocol: In this study, we also developed a LANCE time-resolved fluorescence energy transfer (TR-FRET) assay as a secondary assay for our screening. The His-tagged HMGA2 and biotinylated oligomer FL814 were linked to Europium-labeled anti-6 × His antibody and APC-labeled streptavidin, respectively. A series of DNA binding studies were performed to determine the optimal conditions for the secondary Assay (Fig. S2). After these experiments, 12.5 nM of FL814 and 62.5 nM of HMGA2 were chosen for the assay, which is the same for the primary assay. The assay tolerated up to 0.25% DMSO without any significant change in signal (Fig. S2c). For a counterscreen assay to exclude those compounds that nonspecifically bind to the protein surface, an AlphaScreen assay of H4 peptide binding to bromodomain-containing protein 4 (BRD4) was adopted (Fig. S2e). Since we are looking for compounds with anti-metastasis or anti-obesity activities, compounds with high levels of cytotoxicity are undesirable. […]
Using a Labcyte Echo 555 acoustic dispenser 5 nL of DMSO were added to columns 1–4 and 45–48 of a white 1536 well plate, while 5 nL of 2 mM compounds in DMSO were added to columns 5–44. […] After an overnight incubation at room temperature the plates were read on a Perkin Elmer Envision multimode plate reader in AlphaScreen mode.

On to `Cc1ccc(C(=O)Nc2ccc(S(=O)(=O)O)c3cc(S(=O)(=O)O)cc(S(=O)(=O)O)c23)cc1NC(=O)c1cccc(NC(=O)Nc2cccc(C(=O)Nc3cc(C(=O)Nc4ccc(S(=O)(=O)O)c5cc(S(=O)(=O)O)cc(S(=O)(=O)O)c45)ccc3C)c2)c1` [suramin], for which the “cell morphology / induction of differentiation” value in test [1] is “adhere to the bottom of the well and extend neurite-like structures”. The “HMGA2 binding to ID2 promoter regions A and B (ChIP)” value in test [2] (100 µM) is on record as “did not detect significant HMGA2 binding reduction”; in test [2] (200 µM) it was “drastic reduction in the enrichment”. Besides, the cell growth result in test [3] is given as “did not significantly affect the cell growth”. The “inhibition of H4 peptide binding to BRD4” value in test [4] is given as “did not inhibit H4 peptide binding to BRD4”.

The values above are taken from PMC7606612, “Identification of HMGA2 inhibitors by AlphaScreen-based ultra-high-throughput screening assays” (Scientific Reports, 2020).
